The results in this text go back to paper PMC8223195 (Molecular Diversity, 2021).

In one data set the test system is hCoV-229E. The class given is cell-based, human corona virus 229E. To be noted: for EC50: (*) mean of three independent experiments ± SEM.
The next data set deals with LN-229 (glioblastoma). The data set can be described thus: IncuCyte real-time proliferation assay, LN-229. Conditions: LN-229, 72 h. It counts as cell-based.
Data set [1] has as its system Capan-1 (pancreatic adenocarcinoma). In words: IncuCyte real-time proliferation assay, Capan-1. It counts as cell-based.
Data set [2] has as its system HCT-116 (colorectal carcinoma). In words: IncuCyte real-time proliferation assay, HCT-116. The class given is cell-based. Conditions: HCT-116, 72 h.
For data set [3], the system named is NCI-H460 (lung carcinoma). The data set can be described thus: IncuCyte real-time proliferation assay, NCI-H460. It counts as cell-based. Conditions: NCI-H460, 72 h.
In data set [4] the test system is DND-41 (acute lymphoblastic leukemia). The data set can be described thus: IncuCyte real-time proliferation assay, DND-41. The class given is cell-based.
Data set [5] deals with HL-60 (acute myeloid leukemia). In words: IncuCyte real-time proliferation assay, HL-60. The class given is cell-based. To be noted: HL-60, 72 h.
The subject of data set [6] is K-562 (chronic myeloid leukemia). In words: IncuCyte real-time proliferation assay, K-562. It counts as cell-based.
Data set [7] concerns Z-138 (non-Hodgkin lymphoma). In words: IncuCyte real-time proliferation assay, Z-138. The class given is cell-based. To be noted: Z-138, 72 h.
The mark [8] stands for this setting: * mean of two independent experiments ± SEM.
Setting [9] is: Capan-1, 72 h, * mean of two independent experiments ± SEM.
The mark [10] stands for this setting: DND-41, 72 h, * mean of two independent experiments ± SEM.
[11] abbreviates: K-562, 72 h, * mean of two independent experiments ± SEM.

With `Cc1cc(C)n(-c2nnc3n2NC(c2ccc(Cl)cc2)C(C(=O)c2ccc(Br)cc2)S3)n1` (racemic) [5 g, ( ±)-(4-Bromophenyl)(6-(4-chlorophenyl)-3-(3,5-dimethyl-1H-pyrazol-1-yl)-6,7-dihydro-5H-triazolo[3,4-b][1,3,4]thiadiazin-7-yl)methanone], the EC50 (usually the concentration at which the effect is half-maximal) with hCoV-229E was more than 100 µM. Moreover, the IC50 (with LN-229 (glioblastoma) (setting [8]); in [1] (setting [9]); in data set [2] (setting [8]); in data set [3] (setting [8]); in data set [4] (setting [10]); in [5] (setting [8])) was more than 100 µM in each case. In addition, the half-inhibitory concentration (IC50) in data set [6] (setting [11]) and in data set [7] (setting [8]) was more than 100 µM each time. Besides, the CC50 (usually the concentration that lowers cell viability or growth by half) with HEL 299 cells is more than 100 µM.

Regarding `Cc1cc(C)n(-c2nnc3n2NC(c2cc(F)c(F)c(F)c2)C(C(=O)c2ccccc2)S3)n1` (racemic) [5 k, ( ±)-(3-(3,5-Dimethyl-1H-pyrazol-1-yl)-6-(3,4,5-trifluorophenyl)-6,7-dihydro-5H-[1,2,4]triazole [3,4-b][1,3,4]thiadiazin-7-yl)(phenyl)methanone], the EC50 with hCoV-229E is more than 100 µM. For the same compound, the IC50 (in the data set with LN-229 (glioblastoma) (setting [8]); in [1] (setting [9]); in data set [2] (setting [8]); in [3] (setting [8]); in data set [4] (setting [10]); in data set [5] (setting [8])) was more than 100 µM in each case. Further, the IC50 in data set [6] (setting [11]) and in [7] (setting [8]) was more than 100 µM throughout. In addition, in the data set on HEL 299 cells, the cytotoxic concentration (CC50) is more than 100 µM.

The compound `COc1cc(C2Nn3c(nnc3-n3nc(C)cc3C)SC2C(=O)c2ccccc2)cc(OC)c1OC` (racemic) [5 m, ( ±)-(3-(3,5-Dimethyl-1H-pyrazol-1-yl)-6-(3,4,5-trimethoxyphenyl)-6,7-dihydro-5H-[1,2,4]triazole [3,4-b][1,3,4]thiadiazin-7-yl)(phenyl)methanone] returned an EC50 in the data set with hCoV-229E of 95.7 µM. Further, the IC50 (in the data set on LN-229 (glioblastoma) (setting [8]); in [1] (setting [9]); in [2] (setting [8]); in [3] (setting [8]); in [4] (setting [10]); in data set [5] (setting [8])) was more than 100 µM each time. Also, the IC50 in [6] (setting [11]) and in data set [7] (setting [8]) was more than 100 µM throughout. The CC50 in the data set with HEL 299 cells was more than 100 µM.

In the data set on hCoV-229E, `Cc1cc(C)n(-c2nnc3n2NC(c2cccs2)C(C(=O)c2ccc([N+](=O)[O-])cc2)S3)n1` (racemic) [5 s, ( ±)-(3-(3,5-Dimethyl-1H-pyrazol-1-yl)-6-(thiophen-2-yl)-6,7-dihydro-5H-[1,2,4]triazolo[3,4-b][1,3,4]thiadiazin-7-yl)(4-nitrophenyl)methanone] displayed an EC50 of more than 100 µM. In addition, the IC50 (in the data set with LN-229 (glioblastoma) (setting [8]); in [1] (setting [9]); in data set [2] (setting [8]); in data set [3] (setting [8]); in data set [4] (setting [10]); in data set [5] (setting [8])) was more than 100 µM each time. The IC50 in [6] (setting [11]) and in data set [7] (setting [8]) was more than 100 µM in each case. This compound showed a CC50 in the data set on HEL 299 cells of more than 100 µM.

On to `Cc1ccc(C(=O)C2Sc3nnc(-n4nc(C)cc4C)n3NC2c2ccc(C)cc2)cc1` (racemic) [Compound 5b, ( ±)-(3-(3,5-Dimethyl-1H-pyrazol-1-yl)-6-(p-tolyl)-6,7-dihydro-5H-[1,2,4]triazolo[3,4-b][1,3,4]thiadiazin-7-yl)(p-tolyl)methanone], for which, in the data set on hCoV-229E, the selectivity index result is given as “favorable selectivity indexes”. Besides, the EC50 in the data set with hCoV-229E was determined as 4.7 ± 0.5 µM. For the same compound, the IC50 (in general, the concentration that inhibits the measured activity by half) in the data set on LN-229 (glioblastoma) (setting [8]) was 47.1 µM; in data set [1] (setting [9]), 57.5 µM; in data set [2] (setting [8]), 67.8 µM; in [3] (setting [8]), more than 100 µM; in data set [4] (setting [10]) it was 39.3 µM; in [5] (setting [8]) it was 50.9 µM. In addition, the values for the IC50 in data set [6] (setting [11]) and in data set [7] (setting [8]) were 10.4 µM and 48.4 µM, respectively. This compound displayed a CC50 in the data set on HEL 299 cells of 81.5 µM.

In turn, `Cc1cc(C)n(-c2nnc3n2NC(c2ccc([N+](=O)[O-])cc2)C(C(=O)c2ccc([N+](=O)[O-])cc2)S3)n1` (racemic) [Compound 5c, ( ±)-(3-(3,5-Dimethyl-1H-pyrazol-1-yl)-6-(4-nitrophenyl)-6,7-dihydro-5H-[1,2,4]triazolo[3,4-b][1,3,4]thiadiazin-7-yl)(4-nitrophenyl)methanone] yielded an EC50 with hCoV-229E of 24.4 µM. The IC50 (with LN-229 (glioblastoma) (setting [8]); in [1] (setting [9]); in data set [2] (setting [8]); in data set [3] (setting [8]); in data set [4] (setting [10]); in data set [5] (setting [8])) was more than 100 µM in each case. Also, the IC50 in [6] (setting [11]) and in [7] (setting [8]) was more than 100 µM each time. The compound further gave a CC50 with HEL 299 cells of more than 100 µM.

In the case of `Cc1cc(C)n(-c2nnc3n2NC(c2ccccc2Br)C(C(=O)c2ccc(F)cc2)S3)n1` (racemic) [Compound 5e, ( ±)-(6-(2-Bromophenyl)-3-(3,5-dimethyl-1H-pyrazol-1-yl)-6,7-dihydro-5H-[1,2,4]triazolo[3,4-b][1,3,4]thiadiazin-7-yl)(4-fluorophenyl)methanone], the EC50 in the data set on hCoV-229E is more than 100 µM. Further, the IC50 (in the data set with LN-229 (glioblastoma) (setting [8]); in data set [1] (setting [9]); in [2] (setting [8]); in data set [3] (setting [8]); in data set [4] (setting [10]); in [5] (setting [8])) was more than 100 µM throughout. In addition, the IC50 in data set [6] (setting [11]) and in [7] (setting [8]) was more than 100 µM each time. Besides, the CC50 with HEL 299 cells is more than 100 µM.

`Cc1ccc(C(=O)C2Sc3nnc(-n4nc(C)cc4C)n3NC2c2ccccc2Br)cc1` (racemic) [Compound 5f, ( ±)-(6-(2-Bromophenyl)-3-(3,5-dimethyl-1H-pyrazol-1-yl)-6,7-dihydro-5H-[1,2,4]triazolo[3,4-b][1,3,4]thiadiazin-7-yl)(p-tolyl)methanone]: the selectivity index result in the data set with hCoV-229E is “favorable selectivity indexes”. Also, a half-maximal effect with hCoV-229E (EC50) was put at 3.2 ± 1.8 µM. The IC50 (with LN-229 (glioblastoma) (setting [8]); in data set [1] (setting [9]); in data set [2] (setting [8]); in [3] (setting [8]); in data set [4] (setting [10]); in data set [5] (setting [8])) was more than 100 µM each time. Further, the IC50 in data set [6] (setting [11]) and in [7] (setting [8]) was more than 100 µM in each case. In addition, in the data set with HEL 299 cells, the CC50 was more than 100 µM.

Turning to `COc1ccc(C(=O)C2Sc3nnc(-n4nc(C)cc4C)n3NC2c2ccccc2Cl)cc1` (racemic) [Compound 5n, ( ±)-(6-(2-Chlorophenyl)-3-(3,5-dimethyl-1H-pyrazol-1-yl)-6,7-dihydro-5H-[1,2,4]triazolo[3,4-b][1,3,4]thiadiazin-7-yl)(4-methoxyphenyl)methanone], the EC50 in the data set with hCoV-229E was more than 100 µM. Besides, the IC50 is 68.3 µM with LN-229 (glioblastoma) (setting [8]); 63.1 µM in data set [1] (setting [9]); more than 100 µM in data set [2] (setting [8]); more than 100 µM in [3] (setting [8]); 91.7 µM in data set [4] (setting [10]); 71.2 µM in [5] (setting [8]). Further, the IC50 in data set [6] (setting [11]) amounted to 53.2 µM; in [7] (setting [8]), 53.9 µM. The compound further returned a CC50 with HEL 299 cells of more than 100 µM.

`Cc1ccc(C(=O)C2Sc3nnc(-n4nc(C)cc4C)n3NC2c2ccco2)cc1` (racemic) [Compound 5r, ( ±)-(3-(3,5-Dimethyl-1H-pyrazol-1-yl)-6-(furan-2-yl)-6,7-dihydro-5H-[1,2,4]triazolo[3,4-b] [1,3,4]thiadiazin-7-yl)(p-tolyl)methanone]: the EC50 in the data set on hCoV-229E was more than 100 µM. In addition, the IC50 with LN-229 (glioblastoma) (setting [8]) is 43.9 µM; in [1] (setting [9]), 54.3 µM; in data set [2] (setting [8]), 69 µM; in data set [3] (setting [8]) it was 47 µM; in data set [4] (setting [10]) it was 70.2 µM; in data set [5] (setting [8]), 54 µM. The results for the IC50 in data set [6] (setting [11]) and in data set [7] (setting [8]) were 23.5 µM and 50.2 µM, respectively. Besides, the CC50 in the data set on HEL 299 cells is more than 100 µM.

In the data set on hCoV-229E, `Cc1cc(C)n(-c2nnc3n2NC(c2ccco2)C(C(=O)c2ccc([N+](=O)[O-])cc2)S3)n1` (racemic) [Compound 5t, ( ±)-(3-(3,5-Dimethyl-1H-pyrazol-1-yl)-6-(furan-2-yl)-6,7-dihydro-5H-[1,2,4]triazolo[3,4-b][1,3,4]thiadiazin-7-yl)(4-nitrophenyl)methanone] showed an EC50 of more than 100 µM. Besides, the IC50 with LN-229 (glioblastoma) (setting [8]) was 62.7 µM; in data set [1] (setting [9]), more than 100 µM; in data set [2] (setting [8]), more than 100 µM; in [3] (setting [8]), more than 100 µM; in [4] (setting [10]), more than 100 µM; in [5] (setting [8]) it was 74.5 µM. In addition, the IC50 was 79.3 µM in [6] (setting [11]) and 49.5 µM in data set [7] (setting [8]). The same compound had a CC50 in the data set with HEL 299 cells of more than 100 µM.

With `CC(=O)O[C@@]12CO[C@@H]1C[C@H](O)[C@@]1(C)C(=O)[C@H](O)C3=C(C)[C@@H](OC(=O)[C@H](O)[C@@H](NC(=O)OC(C)(C)C)c4ccccc4)C[C@@](O)([C@@H](OC(=O)c4ccccc4)[C@H]21)C3(C)C` [Docetaxel, reference compound], the IC50 in the data set with LN-229 (glioblastoma) (Homo sapiens) turned out to be 0.0087 ± 0.0004 µM; in [1] (Homo sapiens, CAPAN-1, 72 h), 0.0042 ± 0.0021 µM; in data set [2] (Homo sapiens), 0.0009 ± 0.0008 µM; in [3] (Homo sapiens) it was 0.0038 ± 0.0029 µM; in data set [4] (DND41, 72 h) it was 0.0033 ± 0.0014 µM; in data set [5] (Homo sapiens), 0.0023 ± 0.0003 µM. Moreover, the IC50 in [6] (Homo sapiens, K562, 72 h) amounted to 0.0037 ± 0.0003 µM; in data set [7] (Homo sapiens), 0.0011 ± 0.0008 µM.

Regarding `CN[C@@H]1C[C@H]2O[C@@](C)([C@@H]1OC)n1c3ccccc3c3c4c(c5c6ccccc6n2c5c31)C(=O)NC4` [STS, staurosporine, reference compound], the IC50 was 0.0229 ± 0.0021 µM in the data set with LN-229 (glioblastoma) (Homo sapiens) and 0.0007 ± 0.0002 µM in data set [1] (Homo sapiens, CAPAN-1, 72 h).
